Six compounds from US10662411B2, “Culture method for stable proliferation of pluripotent stem cell while maintaining undifferentiated state” (AJINOMOTO CO., INC., priority 2013, dated 2020) can be followed below.

Holding throughout (type): cell-based, human
Test [1] concerns induced pluripotent stem cells (iPS cells, 201B7 strain). Description: Proliferation promoting effect of ethanolamine analogs, laminin 511 fragment, single cell-seeding. The conditions noted are these: 1 week. The procedure:
(§1) In the following Examples, proliferation effects of various test compounds on human pluripotent stem cells were evaluated. As human pluripotent stem cells, induced pluripotent stem cells (iPS cells, 201B7 strain) purchased from iPS Academia Japan, Inc. were used, unless particularly specified. Cell culture was performed using a culture vessel (Becton, Dickinson and Company, Falcon culture petri dish or Falcon culture plate) coated with a basal lamina matrix under the conditions of 5% CO2/37° C.
(§2) Various test compounds were added to a medium having the “E8” composition (disclosed in Nature Methods, 2011, 8, 424-429, which is incorporated herein by reference in its entirety) considered at present to be the minimum composition for cultivating human pluripotent stem cells at given concentrations and used for culture, and the effects thereof were studied. The medium was prepared by using Essential 8 (Life Technologies: A14666SA) considered to have the “E8” composition or a medium formulated to have an equivalent composition.
(§3) After the culture, the cell number was counted to examine the effect of O-phosphoryl ethanolamine. The culture period was set to 1 week. 13,000 viable cells per well were used for single cell-seeding. As a basal lamina matrix, a fragment containing the active domain of laminin 511, which was purchased from Osaka University, was applied at 4.8 μg/well. Y-27632 was added (final concentration 10 μM, Nacalai Tesque: 08945-84) to the medium used for seeding. The cells were cultured in a medium free of Y-27632 from the following day. The number of viable cells was measured by Cell Viability autoanalyzer ViCELL™ XR (BECKMAN COULTER).
as §3, with “2-(methylamino)ethanol.” for “O-phosphoryl ethanolamine.”
as §3, with “2-dimethylaminoethanol.” for “O-phosphoryl ethanolamine.”
After the culture, the cell number was counted to examine the effect of ethanolamine hydrochloride. The culture period was set to 1 week. 13,000 viable cells per well were used for single cell-seeding. As a basal lamina matrix, a fragment containing the active domain of laminin 511, which was purchased from Osaka University, was applied at 4.8 μg/well. Y-27632 was added (final concentration 10 μM, Nacalai Tesque: 08945-84) to the medium used for seeding. […] The number of viable cells was measured by Cell Viability autoanalyzer ViCELL™ XR (BECKMAN COULTER).

For test [2] the test system is unchanged. Put plainly: Proliferation promoting effect of ethanolamine, culture using matrigel. The conditions noted are these: 6, 30, 150, 750 or 3,750 μM, 8 days, single cell-seeding. Here is the method:
as §1, §2
Ethanolamine (Sigma-Aldrich Co. LLC: E0135) was added at a final concentration of 6, 30, 150, 750 or 3,750 μM, and the medium was used for culture immediately after preparation, and the effect of ethanolamine was examined by studying the cell numbers after culture. The culture period was 8 days. 100,000 cells per 1 well were used for single cell-seeding. […]

For test [3] the test system is unchanged. Description: Proliferation promoting effect of ethanolamine and combination with albumin, laminin 511 fragment, single cell-seeding. The following applies: 1 week. Here is the method: as §1, §2
Ethanolamine (Sigma-Aldrich Co. LLC: E0135) was added at a final concentration of 6, 30, 150, 750 or 3,750 μM, and the medium was used for culture immediately after preparation, and the effect of ethanolamine was examined by studying the cell numbers after culture. The culture period was 1 week. […] 13,000 viable cells per 1 well were used for single cell-seeding. As a basal lamina matrix, a fragment containing the active domain of laminin 511, which was purchased from Osaka University, was applied at 5 μg/well. Y-27632 was added (final concentration 10 μM, Nacalai Tesque: 08945-84) to the medium used for seeding. The cells were cultured in a medium free of Y-27632 from the following day. The number of viable cells was measured by Trypan Blue (Life Technologies: 15250-061) staining using a hemocytometer.

The test system is the same in test [4]. Description: Influence of oleic acid carried by albumin on cell proliferation. The conditions noted are these: oleic acid carried by albumin 2.2, 6.5, 21.7 mg/g (20, 60, 200 μM in medium); albumin 2.6 g/l, ethanolamine 30 μM; one week. Here is the method:
as §1
Furthermore, a suspension of activated carbon (5 g, manufactured by Wako Pure Chemical Industries, Ltd.) heated at 200° C. for 30 min in advance in phosphate buffer (20 ml) was added to 100 ml. After stirring at 4° C. for 3 hr, the mixture was centrifuged at 4° C., 11,900 rpm for 20 min. […] Ethanolamine (final concentration 30 μM) was added to each medium. Using each medium, the cells were cultured for one week, and the cell number after culture was confirmed to study the influence of oleic acid. 13,000 viable cells per well were used for single cell-seeding. As a basal lamina matrix, a fragment containing the active domain of laminin 511, which was purchased from Osaka University, was applied at 4.8 μg/well. […] The number of viable cells was measured by Cell Viability autoanalyzer ViCELL™ XR (BECKMAN COULTER).

The mark [5] stands for this setting: 6, 30, 150 or 750 μM in medium with albumin 2.6 g/l.

Counter-ions that a name gives are not always drawn.

With `CNCCO` [2-(methylamino)ethanol], the “cell number relative to non-addition group (0 μM)” value in test [1] (setting [5]) is on record as “proliferation-promoting effect in a relatively wide concentration range”.
In the case of `CN(C)CCO` [2-dimethylaminoethanol], the “cell number relative to non-addition group (0 μM)” value in test [1] (setting [5]) is recorded as “proliferation promoting effect in a relatively wide concentration range”; in test [1] (high concentration range, medium with albumin 2.6 g/l), “proliferation suppressive effect appears in a high concentration range”.
For the compound `NCCOP(=O)(O)O` [O-phosphoryl ethanolamine], the “cell number relative to non-addition group (0 μM)” value in test [1] (setting [5]) was “proliferation-promoting effect in a relatively wide concentration range”.
Same read-out and setting: the entry for `NCCO` [ethanolamine hydrochloride] is “proliferation-promoting effect in a relatively wide concentration range”.
On to `NCCO` [ethanolamine], for which the “cell number after culture” value in test [2] is “proliferation promoting effect in a wide concentration range”. In addition, the “cell number relative to non-addition group (0 μM)” value in test [3] (6, 30, 150, 750 or 3,750 μM, without albumin) was “proliferation-promoting effect in a relatively wide concentration range”; in test [3] (6-3,750 μM combined with albumin 2.6 g/l), “combination with albumin further enhances the proliferation promoting effect”; in test [3] (high concentration range combined with albumin 2.6 g/l) it was “resists a proliferation suppressive effect in a high concentration range, and shows a proliferation promoting effect”; in test [3] (high concentration range, without albumin) it was “proliferation suppressive effect conversely appears in a high concentration range”.
Regarding `CCCCCCCC/C=C\CCCCCCCC(=O)O` [oleic acid], in test [4], the “cell number after culture” value is given as “cell proliferation was suppressed along with an increasing amount of oleic acid carried by albumin”.
